Measurements reported in paper PMC7356998, “Intrinsic Dissolution Rate Profiling of Poorly Water-Soluble Compounds in Biorelevant Dissolution Media” (Pharmaceutics, 2020).
In brackets after ≈: the same amount, converted by molar mass.

How the values were obtained:
[1] = Intrinsic dissolution rate from miniaturized discs (DIDR), μDiss Profiler; format: physicochemical; conditions: disc (D), 100 rpm, mean ± SD
Method: Dissolution experiments were carried out in a small-scale dissolution apparatus using in situ fiber optic probes to measure the amount of drug dissolved over time by UV absorbance (μDiss Profiler, Pion Inc., Billerica, MA, USA). Drug dissolution was carried out from suspensions (S) or discs (D) depending on the solubility of the compound in the biorelevant media studied (Table 3). […] Standard curves were established by adding aliquots of DMSO stock solutions of the compounds to 3 mL of biorelevant medium, respectively. Dissolution media were prepared following the protocol provided by Biorelevant.com Ltd. and used within 48 h after their preparation. The media were incubated at 37 °C for at least one hour prior to use in the dissolution experiments. The hydrodynamic diameter of the micelles/vesicles formed in the biorelevant media were measured by DLS (Table 2). […] Stirring was turned off while measuring the UV absorbance for each aliquot and the standard curve was established based on six aliquots. […] Intrinsic dissolution rates will henceforth be denoted 'IDR' for both SIDR and DIDR values determined in this study (see Table 3 for details).

[2] = physchem; conditions: 37 °C, pH 6.5, fassif, thermodynamic from solid
Method: In these experiments, an excess amount of drug was added to triplicate Eppendorf tubes containing 1 mL of the respective dissolution medium. The tubes were vortexed and placed in a 37 °C incubator. Samples for HPLC analysis were taken 24, 48, and 72 h (triplicates at each time point) after initiation of the experiment to ensure that equilibrium had been reached. The samples were centrifuged at 37 °C, 23,000 g for 10 min (Heraeus Megafuge 8R, Thermo Scientific, Waltham, MA, USA). The supernatant was sampled, diluted 1:1 with acetonitrile, and kept refrigerated until HPLC analysis. […] The injection volumes were 20 μL.

## C#C[C@]1(O)CC[C@H]2[C@@H]3CCc4cc(O)ccc4[C@H]3CC[C@@]21C [Ethinylestradiol]
[1]; FaSSIF-V1 pH 6.5, 37 °C
  IDRFaSSIF-V1: 3.2 ±0.1 μg/min/cm^2
[1]; FaSSIF-V2 pH 6.5, 37 °C
  IDRFaSSIF-V2: 6.6 ± 0.8 μg/min/cm^2
[2]
  solubility thermodynamic: 18.7 ± 1.3 µg/mL (≈ 63.1 µM)
